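A five-concentration, 48-hour dose response in 96-well plates underlies each endpoint, interpolated linearly between surrounding concentrations. The concentration for 50% growth inhibition is given as GI50. TGI: total growth inhibition.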
Key:
Test in all cases: inhibition of tumour cell growth, NCI panel, 48 h
DU-145 prostate = test system: DU-145 prostate
OVCAR-5 ovarian = test system: OVCAR-5 ovarian
SK-MEL-5 melanoma = test system: SK-MEL-5 melanoma
NCI-H460 lung = test system: NCI-H460 lung
HCT-116 colon = test system: HCT-116 colon
CAKI-1 renal = test system: CAKI-1 renal
SK-MEL-28 melanoma = test system: SK-MEL-28 melanoma
UACC-257 melanoma = test system: UACC-257 melanoma
KM12 colon = test system: KM12 colon
SNB-75 CNS = test system: SNB-75 CNS
MDA-MB-435 = test system: MDA-MB-435
MALME-3M melanoma = test system: MALME-3M melanoma
A549 NSCLC = test system: A549 NSCLC
BT-549 breast = test system: BT-549 breast

SMILES	TGI (DU-145 prostate)	TGI (OVCAR-5 ovarian)	TGI (SK-MEL-5 melanoma)	TGI (NCI-H460 lung)	TGI (HCT-116 colon)	TGI (CAKI-1 renal)	TGI (SK-MEL-28 melanoma)	TGI (UACC-257 melanoma)	TGI (KM12 colon)	TGI (SNB-75 CNS)	TGI (MDA-MB-435)	TGI (MALME-3M melanoma)	TGI (A549 NSCLC)	TGI (BT-549 breast)	GI50 (SK-MEL-5 melanoma)
CCCN(CCCCN1C(=O)c2ccccc2C1=O)CC1COc2ccccc2O1 (configuration not stated)	> 100 µM	> 100 µM	> 100 µM	> 100 µM	> 100 µM	> 100 µM	> 100 µM	> 100 µM	> 100 µM	> 100 µM	> 100 µM	> 100 µM	> 100 µM	> 100 µM	
O=C(Nc1ccccc1C(=O)O)/C(=C/c1ccccc1)NC(=O)c1ccccc1	> 100 µM	> 100 µM	> 100 µM	> 100 µM	> 100 µM	> 100 µM	> 100 µM	> 100 µM	> 100 µM	> 100 µM	> 100 µM	> 100 µM	> 100 µM	> 100 µM	
COc1cc2c(cc1OC)C1(c3ccccc3)CN(C2)Cc2cc(OC)c(OC)cc21	> 100 µM	> 100 µM	53.3 µM	> 100 µM	> 100 µM	> 100 µM	> 100 µM	> 100 µM	> 100 µM	92.3 µM	54.8 µM	> 100 µM	> 100 µM	80.1 µM	
Cc1ccc(S(=O)(=O)Oc2ccc(OS(=O)(=O)c3ccc(C)cc3)c3c2C(=O)c2ccccc2C3=O)cc1	> 100 µM	> 100 µM	> 100 µM	> 100 µM	> 100 µM	> 100 µM	> 100 µM	> 100 µM	> 100 µM	64.1 µM	> 100 µM	> 100 µM	> 100 µM	> 100 µM	
COc1ccc(N[C@H](CS(=O)c2ccc(C)cc2)C(F)(F)C(F)(F)F)cc1 (some centres not stated)	> 100 µM	> 100 µM	> 100 µM	> 100 µM	> 100 µM	> 100 µM	> 100 µM	> 100 µM	> 100 µM	75.6 µM	> 100 µM	> 100 µM	> 100 µM	> 100 µM	
O=[N+]([O-])c1cccc2nc3ccccc3c(NCCCN3CCOCC3)c12	0.0298 µM	0.0841 µM	0.0263 µM	0.0661 µM	< 0.0298 µM	0.0785 µM	0.138 µM	0.0527 µM	0.054 µM	0.114 µM	0.0242 µM	0.026 µM	0.0674 µM	0.115 µM	
O=C1CC(=O)c2c(Cl)sc(Cl)c21	> 100 µM	> 100 µM	> 100 µM	> 100 µM	> 100 µM	> 100 µM	> 100 µM	> 100 µM	> 100 µM	> 100 µM	> 100 µM	67.2 µM	> 100 µM	> 100 µM	
CN(C)CCNC(=O)c1cccc2nc3cccc(F)c3nc12	12.9 µM	7.06 µM	2.38 µM	2.73 µM	4.56 µM	15.8 µM	11.5 µM	3.86 µM	8.43 µM	13.2 µM	2.92 µM	6.35 µM	2.85 µM	11.4 µM	
COc1cc(C(N)=O)cc(NC(=O)/C=C/c2ccccc2)c1OC	> 100 µM	> 100 µM	> 100 µM	> 100 µM	> 100 µM	> 100 µM	> 100 µM	> 100 µM	> 100 µM	93.1 µM	> 100 µM	> 100 µM	> 100 µM	> 100 µM	
c1ccc2sc(C3(N4CCCCC4)CCCCCC3)cc2c1	> 100 µM	36.7 µM	31.3 µM	38.6 µM	32.8 µM	64.2 µM	21.6 µM	34.9 µM	31.2 µM	42 µM	55.2 µM	53.9 µM	80.9 µM	52.7 µM	
CN(C)c1ccc(/C=C(\NC(=O)c2ccccc2)C(=O)Nc2ccccc2C(=O)O)cc1	> 100 µM	> 100 µM	> 100 µM	> 100 µM	> 100 µM	> 100 µM	> 100 µM	> 100 µM	> 100 µM	> 100 µM	> 100 µM	> 100 µM	> 100 µM	> 100 µM	
CCn1c(=O)ccc2ccc(N(CCO)CCO)nc21	> 100 µM	> 100 µM	> 100 µM	> 100 µM	> 100 µM	> 100 µM	> 100 µM	> 100 µM	> 100 µM	> 100 µM	> 100 µM	> 100 µM	> 100 µM	> 100 µM	
CC1OC(OC2C(O)COC(OC3C(C)OC(OC4C(OC(=O)[C@]56CCC(C)(C)C[C@@H]5C5=CCC7[C@@]8(C)C[C@H](O)[C@H](OC9OC(CO)C(O)C(OC%10OC(CO)C(O)C(O)C%10O)C9O)[C@@](C)(CO)[C@@H]8CC[C@@]7(C)[C@]5(C)CC6)OCC(O)C4O)C(O)C3OC3OCC(O)C(O)C3O)C2O)C(O)C(O)C1O (some centres not stated)	19.7 µM	22.8 µM	15 µM	34.8 µM	23.7 µM	16.3 µM	5.17 µM	16.8 µM	33.5 µM	30.9 µM	7.72 µM	29.9 µM	4.29 µM	25.8 µM	
CN(C)CCCNc1nnc(NCCCN(C)C)c2c(=O)c3sccc3[nH]c12	> 100 µM	> 85.1 µM	16 µM	20.7 µM	> 33.8 µM	> 48.9 µM	> 84.9 µM	> 100 µM	> 58.3 µM	19.6 µM	> 54.7 µM	35.5 µM	> 78.9 µM	> 79 µM	
CC(C)(C)OC(=O)NC(Cc1cnc[nH]1)C(=O)N1CCCC1C(N)=O (configuration not stated)	> 100 µM	> 100 µM	> 100 µM	> 100 µM	> 100 µM	> 100 µM	> 100 µM	> 100 µM	> 100 µM	> 100 µM	> 100 µM	> 100 µM	> 100 µM	> 100 µM	
C=C(C)[C@@]1(O)CCC[C@H]1NC(=O)OC(C)(C)C	> 100 µM	> 100 µM	> 100 µM	> 100 µM	> 100 µM	> 100 µM	> 100 µM	> 100 µM	> 100 µM	> 100 µM	> 100 µM	> 100 µM	> 100 µM	> 100 µM	
CCCC(=O)OC[n+]1cccc(-c2c(COC(=O)NC(C)C)c(COC(=O)NC(C)C)c3n2CCC3)c1	> 100 µM	> 100 µM	> 100 µM	> 100 µM	> 100 µM	46 µM	> 100 µM	> 100 µM	> 100 µM	> 100 µM	> 100 µM	> 100 µM	> 100 µM	> 100 µM	
CC(C)[Si](OC1=C(C(=O)N(C)c2ccccc2Cl)CCC1)(C(C)C)C(C)C	44.3 µM	21.6 µM	41.2 µM	62.1 µM	37 µM	36.5 µM	39.7 µM	43.4 µM	50.2 µM	29.1 µM	42.7 µM	34.6 µM	32.1 µM	29.8 µM	
C=C1CC(Cn2cc(C)c(=O)[nH]c2=O)(c2ccc(-c3ccccc3)cc2)OC1=O (configuration not stated)	6.42 µM	23.3 µM	2.56 µM	20.8 µM	2.03 µM	4.94 µM	3.75 µM	5.75 µM	7.36 µM	21.8 µM	3.74 µM	6.81 µM	23 µM	3.08 µM	
Cc1ccc(-n2c(Cn3nnc(-c4cccnc4)n3)nn(C3OC(COC(=O)c4ccccc4)C(OC(=O)c4ccccc4)C3OC(=O)c3ccccc3)c2=S)cc1 (configuration not stated)	> 100 µM	> 100 µM	> 100 µM	> 100 µM	> 100 µM	> 100 µM	> 100 µM	> 100 µM	> 100 µM	> 100 µM	> 100 µM	> 100 µM	> 100 µM	> 100 µM	
COc1ccc(C(C2C(=O)N(C)C(=O)N(C)C2=O)C(F)(F)C(=O)N(C)C)cc1 (configuration not stated)	> 100 µM	> 100 µM	> 100 µM	> 100 µM	> 100 µM	> 100 µM	> 100 µM	> 100 µM	> 100 µM	> 100 µM	> 100 µM	> 100 µM	> 100 µM	> 100 µM	
CCCCCC(=O)OCC1(CO)C/C(=C\CC(C(C)C)C(C)C)C(=O)O1 (configuration not stated)	> 100 µM	> 100 µM	> 100 µM	> 100 µM	> 100 µM	> 100 µM	> 100 µM	> 100 µM	> 100 µM	> 100 µM	> 100 µM	> 100 µM	> 100 µM	> 100 µM	
Cc1cc2c(cc1C)[n+](=O)c(N1CCN(c3ccc([N+](=O)[O-])cc3)CC1)c(C#N)n2[O-]	> 100 µM	> 100 µM	> 100 µM	70 µM	> 100 µM	> 100 µM	> 100 µM	> 100 µM	> 100 µM	21.7 µM	> 100 µM	> 100 µM	> 100 µM	> 100 µM	
C#CCOC(=O)C(N)CSSCC(N)C(=O)O (configuration not stated)	> 100 µM	> 100 µM	> 100 µM	> 100 µM	> 100 µM	> 100 µM	> 100 µM	> 100 µM	> 100 µM	> 100 µM	> 100 µM	> 100 µM	> 100 µM	> 100 µM	
Oc1c(-c2ccccc2)sc2ccccc12	59.5 µM	90.3 µM	54.5 µM	51.2 µM	71 µM	13.6 µM	> 100 µM	98.9 µM	75.6 µM	52.1 µM	> 100 µM	59.6 µM	81.4 µM	89.4 µM	
Cn1cc(C[C@@H](N)C(=O)O)c2ccccc21	> 100 µM	> 100 µM	> 100 µM	> 100 µM	> 100 µM	> 100 µM	> 100 µM	> 100 µM	> 100 µM	> 100 µM	> 100 µM	> 100 µM	> 100 µM	> 100 µM	> 100 µM
CCN1CC2=C(NC(=S)NC2c2cc(OC)c(OC)c(OC)c2)/C(=C/c2cc(OC)c(OC)c(OC)c2)C1 (configuration not stated)	> 100 µM	> 100 µM	40.1 µM	> 100 µM	> 100 µM	> 100 µM	47.2 µM	> 100 µM	> 100 µM	20.8 µM	> 100 µM	31.5 µM	> 100 µM	> 100 µM	
c1ccc2c3c([nH]c2c1)C1c2[nH]c4ccccc4c2CCN1CC3	26.1 µM	33.7 µM	28 µM	24.3 µM	23.3 µM	34.2 µM	31.7 µM	28.6 µM	41.3 µM	38.8 µM	33.5 µM	30 µM	36.2 µM	29.9 µM	
O=c1cc(-c2ccccc2)oc2ccc(Oc3nnnn3-c3ccccc3)cc12	> 100 µM	> 100 µM	> 100 µM	> 100 µM	> 100 µM	> 86.5 µM	> 100 µM	> 100 µM	> 100 µM	> 92.5 µM	> 41.9 µM	> 100 µM	> 100 µM	70.7 µM	

Source: PubChem BioAssay (NCI)
